Reference: patent publication US20040092528A1, “Agent for modulating excitatory synaptic transmission comprising a compound having alpha7 nicotinic acetylcholine receptor activation property” (priority 2000, published 2004)
Read-outs that look alike come from different tables or passages of the source.

Columns and labels:
[1] = target: α7 nicotinic ACh receptor (Rattus norvegicus, UniProt Q05941); test: Effect of FK960 on EPSP amplitude in the presence of α7 nicotinic ACh receptor antagonists; assay type: cell-based
[2] = tested on: CA1 neurones; test: Excitatory post-synaptic current (EPSC) in CA1 neurones voltage clamped at −70 mV; assay type: cell-based, rat
[3] = tested on: rats; conditions: rats in vivo; cited from earlier work
[4] = tested on: CA1 neurones; test: Membrane potential and input resistance of CA1 neurones; assay type: cell-based, rat; conditions: FK960 94 nM and 100 nM, n=11, average exposure 30 mins
[5] = tested on: cholinergic receptors; test: Displacement of radiolabelled ligands with high affinity to cholinergic receptors; assay type: binding; conditions: a number of assays
[6] = tested on: CA1 neurones; test: GABAergic inhibitory post-synaptic current (IPSC) in voltage clamped CA1 neurones; assay type: cell-based, rat
[7] = tested on: guinea-pig hippocampus; conditions: cited from earlier work
[8] = tested on: rat hippocampus; conditions: cited from earlier work
[9] = tested on: CA1 neurones in rat hippocampal slices; test: EPSP recording (amplitude, slope, quantal content) in CA1 neurones in rat hippocampal slices; assay type: cell-based; conditions: for increase in EPSP slope: dose-response series
[10] = one CA1 neurone (FIG. 1), 100 nM FK960

Sequence of α7 nicotinic ACh receptor (Q05941 23-502): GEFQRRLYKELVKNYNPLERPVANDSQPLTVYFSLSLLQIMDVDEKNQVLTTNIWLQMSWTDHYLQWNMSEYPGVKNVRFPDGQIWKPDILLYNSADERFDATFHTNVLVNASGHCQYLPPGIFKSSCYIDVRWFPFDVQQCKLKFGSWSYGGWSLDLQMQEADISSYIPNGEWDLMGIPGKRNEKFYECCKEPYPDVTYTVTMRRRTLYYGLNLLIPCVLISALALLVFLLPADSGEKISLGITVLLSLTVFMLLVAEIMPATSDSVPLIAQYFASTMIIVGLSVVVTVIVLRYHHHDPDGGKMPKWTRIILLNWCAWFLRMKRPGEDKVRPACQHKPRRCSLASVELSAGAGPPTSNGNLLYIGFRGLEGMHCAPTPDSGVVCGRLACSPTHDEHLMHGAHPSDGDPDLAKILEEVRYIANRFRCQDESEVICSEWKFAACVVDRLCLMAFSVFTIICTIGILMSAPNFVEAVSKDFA

## α-bungarotoxin [reference compound]
[1]
  effect of antagonist on the action of FK960 on the EPSP: attenuated
  mean EPSP amplitude: 1.6 mV

## CC(=O)N1CCN(NC(=O)c2ccc(F)cc2)CC1 [FK960, N-(4-acetyl-1-piperazinyl)-p-fluorobenzamide monohydrate]
[2]; 4 experiments, 20-22 mins exposure to 100 nM FK960, 22.2 ms before
  EPSC decay time constant τEPSC: 28.4 ms
[2]; 4 experiments, 20-22 mins exposure to 100 nM FK960, 98.3 pA before
  EPSC amplitude: 158.3 pA
[2]; one neurone (FIG. 5C), FK960, 103 pA before
  EPSC amplitude: 175 pA
[3]
  effect on scopolamine-induced cognitive deficits: reverse scopolamine-induced cognitive deficits
[4]; 175.3 MΩ in control aCSF
  input resistance: 164.2 MΩ
[4]; −60.3 mV in control aCSF
  resting membrane potential: −59.4 mV
[5]
  displacement of radiolabelled ligands with high affinity to cholinergic receptors: failed to displace
[6]; 100 nM FK960
  effect on the IPSC: no significant effect
[6]; 3 experiments, FK960, 48 pA in control aCSF
  Mean IPSC amplitude: 46 pA
[6]; one CA1 neurone (FIG. 4), 21 minutes in FK960, 39 pA in control aCSF
  IPSC peak amplitude: 38 pA
[7]; guinea pig hippocampus, 100 nM FK960
  effect on magnitude of long-term potentiation: significantly increased the magnitude of long-term potentiation
[7]; guinea-pig hippocampus in vitro
  effect on magnitude of long-term potentiation: increase the magnitude of long-term potentiation
[1]
  increase in mean EPSP amplitude: 11%
  mean EPSP amplitude: 2.0 mV
[1]; 21 minutes exposure to 100 nM FK960 in 100 nM MLA, 5 CA1 neurones, unchanged
  mean EPSP amplitude: 2.6 mV
[1]; FK960 in 10 nM MLA, 21 minutes, n=3, from 3.1 mV
  rise in EPSP amplitude: 10%
[8]
  effect on amplitude of the un-potentiated population spike: increases the amplitude of the un-potentiated population spike
[9]; 0, 50, 100, 200 nM FK960, EPSP slope
  dose-response relationship (shape): bell-shaped
[9]; 100 nM FK960, 21 min, n=9 neurones
  increase in mean EPSP amplitude: 65%
[9]; 100 nM FK960, 21 min, n=9 neurones, 2.3 mV before
  mean EPSP amplitude: 3.8 mV
[9]; 100 nM FK960, 21 minutes, pooled neurones
  mean increase in 1/CV^2 (quantal content): 53%
[9]; 100 nM FK960, 21 minutes, 6.4 before
  1/CV^2 (quantal content), mean: 9.8
[9]; 100 nM FK960, after 21 mins, n=9
  increase in mean EPSP slope: 51%
[9]; 100 nM FK960, after 21 mins, n=9, 357.8 mV/s before
  mean EPSP slope: 540.5 mV/s
[9]; 4 neurones, 20-30 min after exposure to 100 nM FK960, 0.65 before
  frequency of spontaneous EPSPs: 0.54 spontaneous EPSP/sec
[9]; after 21 minutes exposure to 100 nM FK960, 7 neurones, 0.39 mV before
  mean quantum size: 0.42 mV
[9]; after 27 mins in FK960, n=7
  increase in EPSP amplitude: 64%
[9]; after 27 mins in FK960, n=7, 2.2 mV before
  EPSP amplitude: 3.6 mV
[9]; 50 nM FK960
  increase in EPSP slope: smaller and not significant
[9]; 100 nM FK960, n=5, after 21 mins, control aCSF 11%
  increase in EPSP slope: 55%
[9]; 200 nM FK960
  increase in EPSP slope: smaller and not significant
[9]; [10]
  increase in mean EPSP amplitude: 123%
  rise in quantal content: 109%
[9]; one CA1 neurone (FIG. 1), 100 nM FK960, n=287 EPSPs, 2.6 mV in control aCSF
  mean EPSP amplitude: 5.8 mV
[9]; one CA1 neurone (FIG. 1), 21 min 40 sec after 100 nM FK960
  increase in slope of the rising phase of the averaged EPSP: 127%
[9]; one CA1 neurone (FIG. 1), 21 min 40 sec after 100 nM FK960, 326.7 mV/s before
  slope of the rising phase of the averaged EPSP: 742.8 mV/s
[9]; one CA1 neurone (FIG. 1), after 20 mins in 100 nM FK960, 6.4 before
  quantal content (1/CV^2): 13.4
[9]; one CA1 neurone (FIG. 1), after 21 min in 100 nM FK960, 2.6 mV (n=50) before
  mean EPSP amplitude: 5.5 mV

## O=C(c1ccc2nccnc2c1)N1CCCCC1 [FR212436, 1-(quinoxalin-6-ylcarbonyl)piperidine]
[2]; 200 μM FR212436 for 20 min, n=3, 15.0 ms before
  EPSC decay time constant τEPSC: 22.4 ms
[2]; 200 μM FR212436 for 20 min, n=3, 84 pA before
  EPSC amplitude: 181.3 pA
[2]; 2 mM FR212436 for 5-10 min, n=3, 21.5 ms before
  EPSC decay time constant τEPSC: 46.7 ms
[2]; 2 mM FR212436 for 5-10 min, n=3, 73.7 pA before
  EPSC amplitude: 239.7 pA
[2]; one neurone (FIG. 5A), FR212436 200 μM, 42 pA before
  EPSC amplitude: 95 pA
[2]; one neurone (FIG. 5B), FR212436 2 mM, 87 pA before
  EPSC amplitude: 247 pA
